Bridge positions count the residues as written; N and C are the ends. Peptide text beside a SMILES is read from it.
Legend:
PSA [1] = biological target: T1, PSA (Homo sapiens, UniProt P07288); test: Surface plasmon resonance, GST-peptides on PSA captured by MAb H117; type: binding; design: PSA was purified from human seminal fluid as described previously (3); from tissue; host or cells: human seminal fluid
Method: The binding kinetics of selected peptides to PSA was studied by surface plasmon resonance (29) on a BIAcore 2000™ instrument (Biacore AB, Uppsala, Sweden). PSA was captured to the solid phase by MAb H117 which binds to the same epitope as MAb 5E4 (30). The capture antibody was covalently coupled onto the surface of the CM5 sensor chip according to the manufacturer's instructions, using coupling levels of 5000 resonance units (RU). PSA was captured by injection of 416 nM of PSA in PBS, 4-min contact time (5 μl/min) and 60 min wash (20 μl/min) providing ligand levels in the range 500-600 RUs. Each analyte (GST-peptide), at various concentrations, was injected for 1 min at 20 μl/min flow rate. […] PSA-binding to either chemically activated/deactivated blank surface or MAb H117 alone was subtracted as a non-specific interaction. Regeneration after each measurement cycle was done with 3×0.5 min injections of 10 mM HCl. Binding data were analyzed using the BIAEVALUATION software.
The association rate constat (ka), dissociation rate constant (kd) and equilibrium dissociation constant (KD) for GST-peptides to PSA were measured by surface plasmon resonance. […]
The binding kinetics and affinity of the peptides to PSA was estimated by surface plasmon resonance. Increasing concentrations of GST-peptides were injected over PSA captured by MAb H117. Background-corrected sensorgrams were fitted to single-site interaction between GST-peptide and PSA using three different GST-peptide concentrations and the rate equation: d(GST-peptide:PSA)/dt=ka(GST-peptide)×(PSA)−kd(GST-peptide:PSA).

PSA [2] = biological target: T1, PSA; test: Proteolytic cleavage of IGF-BP-3 by PSA, IGF-BP-3 IFMA; type: biochemical; design: PSA was purified from human seminal fluid as described previously (3); from tissue; host or cells: human seminal fluid; settings: PSA 5 μg/mL, 100-fold molar excess of synthetic peptide, IGF-BP-3 70 ng/mL, 16 h at 37° C.; PSA alone 30%
Method: The extent of the cleavage of the substrate was quantitated by monitoring the decrease in IGF-BP-3 immunoreactivity due to proteolytic cleavage of it. PSA (5 μg/mL) was incubated with IGF-BP-3 (70 ng/mL) for 16 h at 37° C. with 100-fold molar excess of peptides to PSA and measured for IGF-BP3 immunoreactivity by IFMA as described (33). As control, the peptide was also added to the reaction mixture containing PSA and IGF-BP3 just before starting the immunoassay to quantify the possible interference of the peptide in the IFMA for IGF-BP-3.
In the experiments, PSA (5 μg/mL) in TBS buffer, pH 7.8 alone or with 100-fold molar excess of peptide was incubated with IGF-BP-3 (70 ng/mL) for 16 h at 37° C., after which the concentration of intact IGF-BP-3 was determined by IFMA.

[3] = average at 3 analyte concentrations
[4] = zinc 0 μM, average of 3 fits, analyte 3.4-8.5 μM
[5] = zinc 1 μM, single fit, 3.4 μM peptide
[6] = zinc 10 μM, single fit, 3.4 μM peptide
[7] = zinc 30 μM, single fit, 3.4 μM peptide

T1 sequence (P07288 25-261): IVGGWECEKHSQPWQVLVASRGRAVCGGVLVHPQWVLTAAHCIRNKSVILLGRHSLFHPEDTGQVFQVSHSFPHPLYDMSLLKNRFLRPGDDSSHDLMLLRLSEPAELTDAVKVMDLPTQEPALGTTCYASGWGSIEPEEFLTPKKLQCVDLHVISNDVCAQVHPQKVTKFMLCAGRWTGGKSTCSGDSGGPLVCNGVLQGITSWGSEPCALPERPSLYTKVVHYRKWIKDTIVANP

| kd × 10^−3 (1/s) (PSA [1]; [3]) | kd × 10^−3 (1/s) (PSA [1]; [4]) | kd × 10^−3 (1/s) (PSA [1]; [5]) | increase (fold) of affinity (PSA [1]; zinc 10 μM versus 0 μM) [fold] | kd × 10^−3 (1/s) (PSA [1]; [6]) | increase (fold) of affinity (PSA [1]; zinc 30 μM versus 0 μM) [fold] | kd × 10^−3 (1/s) (PSA [1]; [7]) | ka × 10^3 (1/Ms) (PSA [1]; [3]) | Kd (PSA [1]; [4]) [µM] | ka × 10^3 (1/Ms) (PSA [1]; [4]) | increase (fold) of affinity (PSA [1]; zinc 1 μM versus 0 μM) [fold] | ka × 10^3 (1/Ms) (PSA [1]; [5]) | ka × 10^3 (1/Ms) (PSA [1]; [6]) | Kd (PSA [1]; [7]) [µM] | ka × 10^3 (1/Ms) (PSA [1]; [7]) | cleavage of IGF-BP-3 by PSA in the presence of peptide (PSA [2]) | Molecule |
| --- | --- | --- | --- | --- | --- | --- | --- | --- | --- | --- | --- | --- | --- | --- | --- | --- |
| 57 × 10^−3 1/s | 57 × 10^−3 1/s | 3.5 × 10^−3 1/s | 6 | 1.6 × 10^−3 1/s | 4.7 | 0.6 × 10^−3 1/s |  |  |  |  |  |  |  |  |  | CC(C)C[C@@H]1NC(=O)[C@H](Cc2ccc(O)cc2)NC(=O)[C@H](CC(=O)O)NC(=O)[C@H](Cc2ccc(O)cc2)NC(=O)[C@H](CC(N)=O)NC(=O)[C@H](Cc2c[nH]cn2)NC(=O)[C@H](C)NC(=O)[C@H](Cc2ccccc2)NC(=O)[C@H](C(C)C)NC(=O)[C@@H](N)CSSC[C@@H](C(=O)O)NC(=O)[C@H](C(C)C)NC1=O [Peptide B-2] (H-CVFAHNYDYLVC-OH; disulfide 1-12; N-terminus assumed) |
| 80 × 10^−3 1/s | 80 × 10^−3 1/s | 4.7 × 10^−3 1/s | 5.9 | 1.6 × 10^−3 1/s | 7.7 | 2.0 × 10^−3 1/s | 10.3 × 10^3 1/Ms | 7.8 | 10.3 × 10^3 1/Ms | 3 | 1.8 × 10^3 1/Ms | 1.2 × 10^3 1/Ms | 1 | 1.9 × 10^3 1/Ms | about 70% | CVFTSDYAFC [Peptide A-1] |
